From patent publication US10011602B2, “Immunological reagents and uses therefor” (THE UNIVERSITY OF MELBOURNE, priority 2012, dated 2018)

Assays:
human PBMC MAIT cells = assay: MR1 tetramer staining of human PBMCs (flow cytometry); assay type: cell-based; settings: PE-streptavidin tetramers; D5, CD161 co-staining
Description: Biotinylated MR1 (produced in either of the 2 methods mentioned above) is used to make tetramers by the addition of biotinylated MR1 to PE Streptavidin (#554061, BD Pharmingen) in a 4:1 molar ratio. PE Streptavidin is added sequentially in 1/10 aliquots to biotinylated MR1 at 10 minute intervals to ensure efficient tetramization.
Human MAIT cells are identified as being D5-positive (D5 mAb stains Vα7.2,-positive T cells; Vα7.2 is the invariant Vα-chain utilized by human MAIT cells) and CD161-positive. Human PBMCs were stained with CD3-PE-Cy7, CD8-PerCP, CD4-APC-Cy7, CD161-APC specific mAbs; as well as the anti-Vα7.2-FITC mAb D5 (generated in-house; human MAIT cells utilize the Vα7.2 alpha chain) and PE-labeled tetramers of mouse MR1-β2m-acetyl-6-Formyl Pterin (mouse MR1 had been refolded with either 6-formyl pterin or acetyl-6-formyl pterin).

MAIT cells = assay: Re-presentation assay: refolded soluble MR1 added to antigen presenting cells expressing MR1 and MAIT cells; assay type: cell-based; settings: MR1 refolded with the named substance
MR1 = molecular target: T1, MR1 (Homo sapiens, UniProt Q95460); assay: Refolding of denatured MR1 and β2m with ligands; assay type: binding; settings: substance added to MR1/β2m refold
T1 construct: soluble human MR1 (residues 1-270 of the mature, leaderless protein); made in house
Description: Genes encoding soluble human MR1 (residues 1-270 of the mature, leaderless protein, lacking the transmembrane and cytoplasmic domains); or human β2m (mature, leaderless protein) were expressed for four hours in BL21 E. coli following induction with 1 mM isopropyl β-D-1-thiogalactopyranoside. E. coli were pelleted and resuspended in a buffer containing 50 mM Tris, 25% (w/v) sucrose, 1 mM EDTA, 10 mM DTT pH 8.0. Inclusion body protein was then extracted by lysis of bacteria in a buffer containing 50 mM Tris pH 8.0, 1% (w/v) Triton X-100, 1% (w/v) sodium deoxycholate, 100 mM NaCl, 10 mM DTT, 5 mM MgCl2, and 1 mg DnaseI per liter of starting culture; and subsequent steps involved homogenization with a polytron homogenizer, centrifugation, and washing inclusion body protein sequentially with firstly a buffer containing 50 mM Tris pH 8, […], 100 mM NaCl, 1 mM EDTA, 1 mM DTT, and secondly a buffer containing 50 mM Tris pH 8.0, 1 mM EDTA, 1 mM DTT. Inclusion body protein was then resuspended in a buffer containing 20 mM Tris pH 8.0, 8 M urea, 0.5 mM EDTA, 1 mM DTT, and following centrifugation the supernatant containing solubilized, denatured inclusion body protein was collected and stored at −80° C.
2 mg of 6-formyl pterin, 56 mg of denatured inclusion body MR1 protein, and 28 mg of β2m protein were added to a 400 ml refold buffer solution containing 0.1 M Tris pH 8.5, 2 mM EDTA, 0.4 M arginine, 0.5 mM oxidized glutathione, 5 mM reduced glutathione. Variably, 5M urea was either present or absent. Following an overnight incubation at 4° C., the refold buffer was dialysed against 3 changes of buffer containing 10 mM Tris, pH8.0 over a period of 24 hours. Refolded MR1-β2m-ligand complex was then purified by sequential DEAE (GE Healthcare) anion exchange, S75 16/60 (GE Healthcare) gel filtration, and MonoQ (GE Healthcare) anion exchange chromatography.

[1] = system: Jurkat cells expressing a conventional T cell receptor; assay: Control: inhibition of activation of Jurkat cells expressing a conventional T cell receptor by viral peptide-classical class I complexes; assay type: cell-based, human; settings: antigen presenting cells displaying viral peptide-classical class I complexes
Description: Thus, 6-formyl pterin has been identified as a potential antagonist compound, capable of blocking activation of MAIT cells by bacterial activating ligands.

[2] = system: human MAIT cells from peripheral blood; assay: Activation of primary MAIT cells from PBMCs (CD69, IFN-γ, TNF-α); assay type: cell-based; settings: PBMCs with C1R cells expressing MR1
Description: PBMCs from a healthy donor were mixed with C1R-huMR1 cells (10^5 each/well). Salmonella SL1344 supernatant (2 μl) from cultures grown in LB supplemented with 25 μg/ml streptomycin (Sigma) for 4 hr at 37° C., or compounds (35A, 36A, 48G: 25 μg/ml final, A-6FP: 10 μM final) or PMA (2 ng/ml+ionomycin (1 ng/ml) added in a total volume of 220 μl RF-10, and incubated overnight at 37° C. Cells were stained with anti-CD3-PE-Cy7 (eBioscience, 20 μg/ml), anti-CD4-APC-Cy7 (Biolegend, 1.7 μg/ml), anti-CD161-APC (Miltenyi Biotec, 1:50), FITC-conjugated D5 (anti-MAIT TCR, 10 μg/ml) and either anti-CD69-PE (BD Biosciences 1:50), anti-IFNγ-PE (BD Pharmingen 10 μg/ml) or anti-TNFα-PE (BD Pharmingen 10 μg/ml), and analyzed by flow cytometry using a Canto II cytometer and Diva software. For intracellular cytokine staining, brefeldin A (10 μg/ml) was added to the assay after the first 1 hr and the incubation allowed to proceed overnight. Cells were fixed with 1% parformaldehyde after staining for surface markers and permeabilised with 1% saponin during cytokine stains. MAIT cells were defined as CD3^+, CD4^−, CD161^+, D5^+ after gating on PBMCs using FSC and SSC.
PBMCs from a healthy donor were mixed with C1R cells expressing MR1 (10^5 each/well). Salmonella SL1344 supernatant (2 μl) from cultures grown in LB supplemented with 25 μg/ml streptomycin (Sigma) for 4 hr at 37° C., or compounds (RL-6,7-diMe, RL-6-Me-7-OH, 6FP: 76.2 μM final, rRL-6-HM: 0.152 μM final) or PMA (2 ng/ml+ionomycin (1 ng/ml) added in a total volume of 220 μl RF-10, and incubated overnight at 37° C. Cells were stained with anti-CD3-PE-Cy7 (eBioscience, 20 μg/ml), anti-CD4-APC-Cy7 (Biolegend, 1.7 μg/ml), anti-CD161-APC (Miltenyi Biotec, 1:50), FITC-conjugated D5 (anti-MAIT TCR, 10 μg/ml) and either anti-CD69-PE (BD Biosciences 1:50), anti-IFNγ-PE (BD Pharmingen 10 μg/ml) or anti-TNFα-PE (BD Pharmingen 10 μg/ml), and analyzed by flow cytometry using a Canto II cytometer and Diva software. […] CD69 expression was analysed by flow cytometry. […]

Jurkat.MAIT cells = assay: Activation of Jurkat.MAIT cells (CD69) with C1R antigen presenting cells expressing MR1; assay type: cell-based, human
Description: Jurkat cells transduced with a MAIT TCR comprising the TRAV1-2+TRAJ33 invariant α chain, and a TRBV6-1 β chain were tested for activation by addition of Salmonella supernatant to C1R antigen presenting cells expressing MR1 for 16 hours. Jurkat.MAIT cells were subsequently stained with PE-conjugated anti-CD3, and APC-conjugated anti-CD69 antibodies before analysis by flow cytometry. Activation of Jurkat.MAIT cells was measured by an increase in surface CD69 expression. Compounds to be tested for the ability to activate Jurkat.MAIT cells were tested alongside Salmonella supernatant.
A biological assay for the activation of MAIT T cell receptor (TCR)-expressing T cell lines (into which genes encoding the MAIT TCR alpha and beta chains had been introduced), by antigen presenting cells (expressing MR1 on the cell surface) infected with the bacterium Salmonella typhimurium has been established. This assay measures the increase in expression of the cell surface activation marker, CD69, upon activation of MAIT T cells.

Jurkat.LC13 line = assay: Activation of control Jurkat.LC13 line in the presence of C1R.HLA-B8 cells; assay type: cell-based, human
Description: Next, to formally establish whether 7-hydroxy-6-methyl-8-ribityl lumazine and/or its precursor, 6,7-dimethyl-8-ribityl lumazine, could activate MAIT cells, both compounds were chemically synthesized their ability to enable MR1 refolding and to activate Jurkat.MAIT cells and human MAIT cells from peripheral blood tested. […] Thus, direct precursors of riboflavin biosynthesis activate MAIT cells.

T1 sequence (Q95460 23-292): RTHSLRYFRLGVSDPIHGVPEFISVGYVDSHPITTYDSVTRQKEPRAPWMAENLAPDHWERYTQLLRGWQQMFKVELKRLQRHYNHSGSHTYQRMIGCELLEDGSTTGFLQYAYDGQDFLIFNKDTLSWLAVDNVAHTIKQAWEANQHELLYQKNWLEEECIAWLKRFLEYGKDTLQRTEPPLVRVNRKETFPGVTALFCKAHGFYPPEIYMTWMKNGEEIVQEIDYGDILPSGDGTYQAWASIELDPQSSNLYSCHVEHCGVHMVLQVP
T1 sequence (P61769 21-119 partner): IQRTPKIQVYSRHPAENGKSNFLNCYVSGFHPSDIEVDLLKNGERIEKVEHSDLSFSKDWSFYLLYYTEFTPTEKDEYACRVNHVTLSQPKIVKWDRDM

In the case of “human wild-type MR1 refolded with 6-FP: control tetramers from human wild-type MR1 refolded with 6-FP”, the “Tetramer staining of human PBMC MAIT cells” value (“Tetramer staining” below) (human PBMC MAIT cells) is reported as “fail to stain”.

For `Nc1nc2ncc(CNc3ccc(C(=O)N[C@@H](CCC(=O)O)C(=O)O)cc3)nc2c(=O)[nH]1` [Folic acid], the “Activation of MAIT cells by MR1 refolded with the substance (re-presentation assay)” value (MAIT cells) was “failed to activate”, the “Activation of MAIT cells by MR1 refolded with the substance (re-presentation assay)” value (MAIT cells; listed as folic acid) was “non-stimulatory” and the “Ability to refold MR1 into native MR1-β2m complex” value (MR1) was “yielded significant amounts of native MR1”.

`Nc1nc2nccnc2c(=O)[nH]1` [pterin] was tested, and the “Ability to refold MR1 into native MR1-β2m complex” value (MR1) was “inability”.

With `Cc1nc2nc(N)[nH]c(=O)c2nc1C` [6-7-dimethylpterin] the “Ability to refold MR1 into native MR1-β2m complex” value (MR1) was “inability”.

For `Nc1nc2ncc(C=O)nc2c(=O)[nH]1` [Compound 6-FP, 6-formyl pterin, reference compound], the “Inhibitory effect on activation of Jurkat cells expressing a conventional T cell receptor” value [1] was “no inhibitory effect”, the “Activation of MAIT cells (CD69 upregulation, intracellular IFN-γ and TNF-α)” value [2] was “did not activate” and the “Ability to refold MR1 into native MR1-β2m complex” value (MR1) was “indistinguishable from MR1 refolded with folic acid”. The “Activation of Jurkat.MAIT cells (increase in surface CD69)” value (“Activation … (increase in surface CD69)” for short) (Jurkat.MAIT cells) was “did not activate”.

“human Leucine151Alanine MR1 refolded with acetyl-6-FP: tetramers from human Leucine151Alanine MR1 (BirA peptide-tagged) refolded with acetyl-6-FP” was tested, and the “Tetramer staining” value (human PBMC MAIT cells) was “stain a proportion”.

With `Cc1nc2c(=O)[nH]c(=O)nc-2n(C[C@H](O)[C@H](O)[C@H](O)CO)c1O` [Compound 2, 7-hydroxy-6-methyl-8-D-ribityllumazine] the “Activation of MAIT cells (CD69 upregulation, intracellular IFN-γ and TNF-α)” value [2] was “specifically activated”, the “Activation of control Jurkat.LC13 line” value (Jurkat.LC13 line) was “failed to activate” and the “Ability to refold MR1 into native MR1-β2m complex” value (MR1) was “could be refolded with MR1”. The “Activation … (increase in surface CD69)” value (Jurkat.MAIT cells) was “activated”.

`Cc1cc2nc3c(=O)[nH]c(=O)nc-3n(C[C@H](O)[C@H](O)[C@H](O)CO)c2cc1C` [riboflavin, reference compound] was tested, and the “Ability to refold MR1 into native MR1-β2m complex” value (MR1) was “did not form MR1-β2m complexes” and the “Activation … (increase in surface CD69)” value (Jurkat.MAIT cells) was “did not”.

B1: mouse MR1 refolded with 6-FP: tetramers from mouse MR1 (BirA peptide-tagged) refolded with 6-FP (protein, UniProt Q8HWB0 19-341, looked up)
Major histocompatibility …: RTHSLRYFRLAVSDPGPVVPEFISVGYVDSHPITTYDSVTRQKEPKAPWMAENLAPDHWERYTQLLRGWQQTFKAELRHLQRHYNHSGLHTYQRMIGCELLEDGSTTGFLQYAYDGQDFIIFNKDTLSWLAMDYVAHITKQAWEANLHELQYQKNWLEEECIAWLKRFLEYGRDTLERTEHPVVRTTRKETFPGITTFFCRAHGFYPPEISMTWMKNGEEIAQEVDYGGVLPSGDGTYQTWLSVNLDPQSNDVYSCHVEHCGRQMVLEAPRESGDILRVSTISGTTILIIALAGVGVLIWRRSQELKEVMYQPTQVNEGSSPS
modifications: BirA tag, tetramer, 6-FP ligand
In the case of B1, the “Tetramer staining” value (human PBMC MAIT cells) is reported as “can stain a proportion”.

B2: rRL-6-CH2OH-loaded mouse Lys43Ala-MR1: tetramers of mouse Lys43Ala-MR1 loaded with rRL-6-CH2OH (protein, UniProt Q8HWB0 19-341, looked up, variant K43A)
Major histocompatibility …: RTHSLRYFRLAVSDPGPVVPEFISVGYVDSHPITTYDSVTRQAEPKAPWMAENLAPDHWERYTQLLRGWQQTFKAELRHLQRHYNHSGLHTYQRMIGCELLEDGSTTGFLQYAYDGQDFIIFNKDTLSWLAMDYVAHITKQAWEANLHELQYQKNWLEEECIAWLKRFLEYGRDTLERTEHPVVRTTRKETFPGITTFFCRAHGFYPPEISMTWMKNGEEIAQEVDYGGVLPSGDGTYQTWLSVNLDPQSNDVYSCHVEHCGRQMVLEAPRESGDILRVSTISGTTILIIALAGVGVLIWRRSQELKEVMYQPTQVNEGSSPS
modifications: tetramer loaded with rRL-6-CH2OH
notes: tetramers of mouse Lys43Ala-MR1 loaded with rRL-6-CH2OH
In the case of B2, the “Tetramer staining” value (human PBMC MAIT cells) is reported as “identify a CD161-positive, D5-positive population”.
